Laboratory results published in PubChem BioAssay AID330 (DTP/NCI, 2004).
Several values for one entry are separate records, joined by “and”; a condition that tells them apart may be missing. Equal entries are not always repeated. Inconclusive results and toxic doses are left out.

System: P388 leukemia ip, CD2F1 mice, survival T/C
Assay: NCI In Vivo Anticancer Drug Screen. Data for tumor model P388 Leukemia (intraperitoneal) in CD2F1 (CDF1) mice
Conditions: endpoint: median survival time, vehicle: other, higher = longer survival
Procedure, shortened: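 Mice carrying the transplanted tumor received test compound or vehicle. Survival was recorded in each group, and the value is the treated-group measurement divided by that of the vehicle-treated control group.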

CC1OC(=O)C(C(C)C)NC(=O)C(C(C)C)OC(=O)C(C(C)C)NC(=O)C(C)OC(=O)C(C(C)C)NC(=O)C(C(C)C)OC(=O)C(C(C)C)NC(=O)C(C)OC(=O)C(C(C)C)NC(=O)C(C(C)C)OC(=O)C(C(C)C)NC1=O (configuration not stated)
T/C (dose: 12.5 micrograms/kg/injection, schedule: Q01DX005 (iv)): 99 % of control and 100 % of control | T/C (dose: 12.5 micrograms/kg/injection, schedule: Q03HX008 (ip)): 118 % of control | T/C (dose: 12.5 micrograms/kg/injection, schedule: Q03HX020 (ip)): 119 % of control | T/C (dose: 12.5 micrograms/kg/injection, schedule: Q04DX002 (iv)): 101 % of control | T/C (dose: 12.5 micrograms/kg/injection, schedule: Q12HX004 (ip)): 110 % of control | T/C (dose: 12.5 micrograms/kg/injection, schedule: Q12HX004 (iv)): 103 % of control | T/C (dose: 12.5 micrograms/kg/injection, schedule: Q12HX010 (ip)): 123 % of control | T/C (dose: 12.5 micrograms/kg/injection, schedule: Q12HX010 (iv)): 103 % of control | T/C (dose: 25.0 micrograms/kg/injection, schedule: Q01DX001 (ip)): 98 % of control | T/C (dose: 25.0 micrograms/kg/injection, schedule: Q01DX001 (iv)): 103 % of control | T/C (dose: 25.0 micrograms/kg/injection, schedule: Q01DX005 (ip)): 115 % of control and 116 % of control | T/C (dose: 25.0 micrograms/kg/injection, schedule: Q01DX005 (iv)): 99 % of control and 100 % of control | T/C (dose: 25.0 micrograms/kg/injection, schedule: Q03HX008 (ip)): 113 % of control | T/C (dose: 25.0 micrograms/kg/injection, schedule: Q03HX020 (ip)): 124 % of control | T/C (dose: 25.0 micrograms/kg/injection, schedule: Q04DX002 (ip)): 102 % of control | T/C (dose: 25.0 micrograms/kg/injection, schedule: Q04DX002 (iv)): 101 % of control | T/C (dose: 25.0 micrograms/kg/injection, schedule: Q12HX004 (ip)): 100 % of control | T/C (dose: 25.0 micrograms/kg/injection, schedule: Q12HX004 (iv)): 98 % of control | T/C (dose: 25.0 micrograms/kg/injection, schedule: Q12HX010 (ip)): 121 % of control | T/C (dose: 25.0 micrograms/kg/injection, schedule: Q12HX010 (iv)): 103 % of control | T/C (dose: 50.0 micrograms/kg/injection, schedule: Q01DX001 (ip)): 100 % of control | T/C (dose: 50.0 micrograms/kg/injection, schedule: Q01DX001 (iv)): 101 % of control | T/C (dose: 50.0 micrograms/kg/injection, schedule: Q01DX005 (ip)): 118 % of control and 120 % of control | T/C (dose: 50.0 micrograms/kg/injection, schedule: Q01DX005 (iv)): 98 % of control and 103 % of control | T/C (dose: 50.0 micrograms/kg/injection, schedule: Q04DX002 (ip)): 109 % of control | T/C (dose: 50.0 micrograms/kg/injection, schedule: Q04DX002 (iv)): 100 % of control | T/C (dose: 50.0 micrograms/kg/injection, schedule: Q12HX004 (ip)): 113 % of control | T/C (dose: 50.0 micrograms/kg/injection, schedule: Q12HX004 (iv)): 104 % of control | T/C (dose: 50.0 micrograms/kg/injection, schedule: Q12HX010 (iv)): 101 % of control | T/C (dose: 100.0 micrograms/kg/injection, schedule: Q01DX001 (ip)): 100 % of control | T/C (dose: 100.0 micrograms/kg/injection, schedule: Q01DX001 (iv)): 100 % of control | T/C (dose: 100.0 micrograms/kg/injection, schedule: Q01DX005 (iv)): 101 % of control | T/C (dose: 100.0 micrograms/kg/injection, schedule: Q03HX020 (ip)): 161 % of control | T/C (dose: 100.0 micrograms/kg/injection, schedule: Q04DX002 (ip)): 110 % of control | T/C (dose: 100.0 micrograms/kg/injection, schedule: Q04DX002 (iv)): 101 % of control | T/C (dose: 100.0 micrograms/kg/injection, schedule: Q12HX004 (ip)): 124 % of control | T/C (dose: 100.0 micrograms/kg/injection, schedule: Q12HX010 (iv)): 102 % of control | T/C (dose: 200.0 micrograms/kg/injection, schedule: Q01DX001 (ip)): 103 % of control | T/C (dose: 200.0 micrograms/kg/injection, schedule: Q03HX008 (ip)): 120 % of control | T/C (dose: 200.0 micrograms/kg/injection, schedule: Q12HX010 (ip)): 153 % of control | T/C (dose: 400.0 micrograms/kg/injection, schedule: Q01DX001 (ip)): 111 % of control | T/C (dose: 800.0 micrograms/kg/injection, schedule: Q01DX001 (ip)): 114 % of control
